For 93 compounds, cytotoxicity results are on record in ChEMBL document CHEMBL3507680, “University of Dundee, Gates Library screen for HepG2 cell viability”.

The series in a line: Human HepG2 cell viability assay in 384 well format. The series is classed as toxicity, cell-based. On the set-up: dose 125 nL, time 70.5 hour; concentration not given beside the values. Particulars: HepG2 cells, read-out: Inhibition.

With `O=C(c1ccccn1)N1CC[C@@H](N2CCOCC2)[C@@H]1Cc1ccccc1`, the cytotoxicity at 70.5 h was -10.4%.

In the case of `O=C(c1cnccn1)N1CC[C@H]2C[C@@H](c3ccncn3)O[C@@H]2C1`, the cytotoxicity at 70.5 h was -11.7%.

Regarding `O=C(c1ccoc1)N1CC[C@H]2C[C@@H](c3ccncn3)O[C@@H]2C1`, the cytotoxicity at 70.5 h turned out to be 4.08%.

With `O=C(c1ccsc1)N1CC[C@@H](N2CCOCC2)[C@@H]1Cc1ccccc1`, the cytotoxicity at 70.5 h was -11.8%.

`Cc1ccc(CN2CCC3(CC(=O)N(c4ccc5c(c4)OCO5)C3)C2)o1` (stereo not drawn): the cytotoxicity at 70.5 h was -6.86%.

For `Cc1cc(C(=O)N2CC[C@H]3C[C@H](c4ccncn4)O[C@@H]3C2)c(C)[nH]1`, the cytotoxicity at 70.5 h was -4.78%.

Take `CC(=O)N1CCC2(CC1)CCN(C(=O)c1ccc(F)c(C(F)(F)F)c1)C2`: the cytotoxicity at 70.5 h was -7.91%.

In the case of `CC(=O)N1CCC2(CCN(Cc3ccc(Cl)c(C(F)(F)F)c3)CC2)C1`, the cytotoxicity at 70.5 h is -11.6%.

For `CC(=O)N1CCC2(CCN(C(=O)c3ccc(F)c(C(F)(F)F)c3)C2)C1` (stereo not drawn), the cytotoxicity at 70.5 h was -12.8%.

`Cn1cccc1C(=O)N1C[C@@H](OCc2cccnc2)[C@H]2OCCC[C@H]21`: the cytotoxicity at 70.5 h was 8.24%.

For the compound `c1cc(CN2CCOCC3(CCN(C4CCOCC4)C3)C2)ccn1` (stereo not drawn), the cytotoxicity at 70.5 h came out at 6.88%.

On to `O=C(NCC1Cn2nnc(-c3cccc(F)c3)c2CO1)c1ccc[nH]1` (stereo not drawn), for which the cytotoxicity at 70.5 h came to 4.99%.

Consider `c1cnc(OCc2nnc3n2CCN(CC2CCOCC2)C3)nc1`, for which the cytotoxicity at 70.5 h is -7.25%.

`Cc1nccc([C@H]2C[C@@H]3CCN(Cc4ccco4)C[C@H]3O2)n1`: the cytotoxicity at 70.5 h is -10.9%.

As to `CCOCC1CC2(CCN(C(=O)c3ncccn3)CC2)CO1` (stereo not drawn), the cytotoxicity at 70.5 h was -10.5%.

With `CN(C)Cc1nnc2n1CCN(Cc1ccccn1)CC2`, the cytotoxicity at 70.5 h was -10.5%.

As to `CC(C)NC(=O)N1CCC2(CC(=O)N(c3cccc(F)c3)C2)C1` (stereo not drawn), the cytotoxicity at 70.5 h is -12.8%.

`CO[C@H]1CN(C(=O)c2ccnnc2)[C@@H]2COC[C@H]12`: the cytotoxicity at 70.5 h was found to be 36.6%.

For the compound `Cc1ccc(S(=O)(=O)N2CCC3(CC(C(=O)NCC(C)C)=NO3)C2)cc1` (stereo not drawn), the cytotoxicity at 70.5 h came out at 7.95%.

For `Cc1nccc([C@@H]2C[C@@H]3CCN(Cc4ccco4)C[C@H]3O2)n1`, the cytotoxicity at 70.5 h came out at 12.2%.

As to `O=C(c1ccnnc1)N1C[C@H](OCc2ccccn2)[C@H]2COC[C@H]21`, the cytotoxicity at 70.5 h came to 4.62%.

Take `O=C(c1ccncn1)N1C[C@@H]2CN(Cc3cccnc3)CCO[C@@H]2C1`: the cytotoxicity at 70.5 h is -12.7%.

Take `O=C(c1ccccn1)N1CCC2(CC1)COC(COc1cccnc1)C2` (stereo not drawn): the cytotoxicity at 70.5 h is -7.52%.

As for `CC(C)c1nccc([C@@H]2C[C@@H]3CCN(Cc4ccco4)C[C@H]3O2)n1`, the cytotoxicity at 70.5 h amounted to 38.3%.

On to `Fc1cnc(N2CCC3(CCCN(c4nncs4)C3)C2)nc1` (stereo not drawn), for which the cytotoxicity at 70.5 h was -6.18%.

For `NC(=O)N1CCCC(C(=O)N2CCc3c(nc(CC4CC4)[nH]c3=O)C2)C1` (stereo not drawn), the cytotoxicity at 70.5 h was -6.32%.

As for `Cc1nc(CNC(=O)CC2C(=O)NCCN2Cc2ccccc2C)n[nH]1` (stereo not drawn), the cytotoxicity at 70.5 h was -0.629%.

In the case of `CCCc1cc(C(=O)N(Cc2cccnc2)Cc2cccnc2)[nH]n1`, the cytotoxicity at 70.5 h is -7.25%.

Take `O=C(c1ccccn1)N1CCC(c2nccn2Cc2ccncc2)CC1`: the cytotoxicity at 70.5 h is -14.4%.

On to `Cc1nc(CC(=O)N2CCCC2c2nc(C(C)C)no2)cs1` (stereo not drawn), for which the cytotoxicity at 70.5 h was -6.42%.

On to `CCN(C)CC(=O)N1CCN(Cc2ccccc2)[C@@H]2CS(=O)(=O)C[C@@H]21`, for which the cytotoxicity at 70.5 h stood at 2.14%.

As to `OC[C@H]1CN(C2Cc3ccccc3C2)C[C@H]1CN1CCC(O)CC1`, the cytotoxicity at 70.5 h was -7.74%.

As for `c1csc(-c2noc(COCC3CCCO3)n2)c1` (stereo not drawn), the cytotoxicity at 70.5 h was found to be 1.87%.

Turning to `Cc1c(CNCCCOc2cccnc2)c2ccccc2n1CC(N)=O`, the cytotoxicity at 70.5 h amounted to 5.45%.

`COc1ccc(OCC2CCCN(c3nc(CO)cs3)C2)cc1` (stereo not drawn): the cytotoxicity at 70.5 h was -9.63%.

Turning to `CN(Cc1ccc(CCC(C)(C)O)cc1)Cc1cccnc1`, the cytotoxicity at 70.5 h was -11.5%.

Regarding `NC(=O)CN1CCC(C(=O)NCCc2nc(-c3ccccc3)cs2)CC1`, the cytotoxicity at 70.5 h was -3.75%.

For the compound `Cc1nnsc1CN1CC[C@@](O)(C2CCC2)[C@H](C)C1`, the cytotoxicity at 70.5 h was -7.08%.

Regarding `CCn1nc(CC(C)C)cc1C(=O)N1CC(N2CCCCC2C)C1` (stereo not drawn), the cytotoxicity at 70.5 h is -2.38%.

In the case of `COc1cccc2c1OCC(CNC(=O)Cc1csc(C(C)=O)c1)C2` (stereo not drawn), the cytotoxicity at 70.5 h is 14.4%.

On to `Cc1cc(C)c(C(=O)N2CCCC(C(=O)CCc3ccccc3)C2)cn1` (stereo not drawn), for which the cytotoxicity at 70.5 h is -3.58%.

As for `N[C@H]1CN(C(=O)c2ccc(Cl)cc2O)C[C@@H]1C1CC1`, the cytotoxicity at 70.5 h is -3.15%.

Turning to `O=C1Nc2ccccc2NC12CCN(Cc1nnc(C3CC3)o1)CC2`, the cytotoxicity at 70.5 h was -5.39%.

`COc1cccc(C(=O)N2C[C@@H](CN(C)CCO)[C@@H](CO)C2)c1C`: the cytotoxicity at 70.5 h was 23.8%.

Turning to `Cc1cc(C)n(CC2(CNC(=O)C(c3ccc(F)cc3)N(C)C)CC2)n1` (stereo not drawn), the cytotoxicity at 70.5 h is -1.88%.

For `Cc1cc(NC(C)Cc2cccnc2)n2nccc2n1` (stereo not drawn), the cytotoxicity at 70.5 h is -12%.

Regarding `CN(CCc1ccccc1)Cc1cc(C(=O)N2CCSCC2)no1`, the cytotoxicity at 70.5 h is -3.85%.

Turning to `CCn1nccc1C(=O)N1CCCCC1CCc1ccc(O)cc1` (stereo not drawn), the cytotoxicity at 70.5 h was 11%.

As to `CCc1ccc(CN(C)C(=O)C(c2ccccc2F)N(C)C)nc1` (stereo not drawn), the cytotoxicity at 70.5 h was -7.7%.

With `Cc1nc2c(c(N3CCC(O)(Cn4ccnc4)CC3)n1)CCNCC2`, the cytotoxicity at 70.5 h was -1.99%.

With `Cc1nnsc1CNC(=O)c1ccc2c(c1)nc(N1CCOCC1)n2C`, the cytotoxicity at 70.5 h is -12.9%.

For the compound `CSCC(=O)N1CCc2[nH]nc(-c3ccc4c(c3)OCO4)c2C1`, the cytotoxicity at 70.5 h was found to be 0.0699%.

Take `COCc1noc(Cn2ccc3ccccc3c2=O)n1`: the cytotoxicity at 70.5 h is -5.61%.

Take `Cc1cccc(C(=O)N2CCCCC2c2ccc(CN(C)C)cc2)c1` (stereo not drawn): the cytotoxicity at 70.5 h is -8.71%.

Turning to `O=C(NC1CCCC1)N1C[C@H]2CN(c3ccncc3)C[C@@]2(C(=O)O)C1`, the cytotoxicity at 70.5 h is 14.8%.

As for `O=C(NCc1cccc(F)c1F)c1cc(CN2CCCC(O)C2)on1` (stereo not drawn), the cytotoxicity at 70.5 h turned out to be 4.85%.

`COCCN1CCCC2(CCN(c3cccc(C(F)(F)F)n3)C2)C1=O` (stereo not drawn): the cytotoxicity at 70.5 h was -9.08%.

As for `Cc1nc2c(c(=O)[nH]1)CN(C(=O)CC[C@@H]1CCCN3CCCC[C@H]13)C2`, the cytotoxicity at 70.5 h was 24.5%.

On to `COC1CCN(S(=O)(=O)N2C[C@H](c3ccccc3)[C@@H](N)C2)CC1`, for which the cytotoxicity at 70.5 h is -2.79%.

`COc1cc(C(=O)NCC2CCCN(Cc3ccco3)C2)ccn1` (stereo not drawn): the cytotoxicity at 70.5 h amounted to 16.1%.

Consider `Cc1nn(C)c2ncnc(N3CCC(O)(CN4CCCC4)CC3)c12`, for which the cytotoxicity at 70.5 h was -6.34%.

Consider `CC[S+]([O-])CCc1nc(CC(C)C)nn1-c1ccc2c(c1)OCCO2` (stereo not drawn), for which the cytotoxicity at 70.5 h is 5.5%.

Consider `COc1ccccc1N1CCN(C(=O)CSC(C)C)C(C)C1` (stereo not drawn), for which the cytotoxicity at 70.5 h is -3.04%.

As to `Cc1noc(C)c1CCCNC(=O)C1CCN(C(C)C)CC1`, the cytotoxicity at 70.5 h was -7.17%.

As to `O=C(O)CC[C@@H]1CN(c2ncnc3[nH]ccc23)CC[C@@H]1N1CCOCC1`, the cytotoxicity at 70.5 h was -4.6%.

In the case of `Cc1nc2ncccn2c1C(=O)N1CCc2[nH]cnc2C1`, the cytotoxicity at 70.5 h is -1.79%.

As for `Cn1cc(CN2CCC(Cn3cc(-c4ccccc4)nn3)CC2)cn1`, the cytotoxicity at 70.5 h was -4.28%.

For `O=S(=O)(c1cccnc1)N1CCCCC1CCN1CCOCC1` (stereo not drawn), the cytotoxicity at 70.5 h was 23.1%.

In the case of `O=C(NCc1ccccc1F)C1=NOC2(CCNC2)C1` (stereo not drawn), the cytotoxicity at 70.5 h was -10.8%.

On to `O=C(NCc1ccco1)[C@H]1CC[C@@H]2[C@@H](CCN2c2ncc(F)cn2)O1`, for which the cytotoxicity at 70.5 h is -10.2%.

Regarding `CN(C)S(=O)(=O)N1CCC[C@]2(C[C@@H](Oc3ncccc3F)CO2)C1`, the cytotoxicity at 70.5 h was -11.4%.

Take `COCC1CN(Cc2cnn(C)c2)Cc2nn(C)cc21` (stereo not drawn): the cytotoxicity at 70.5 h is -11.4%.

As to `O=S(=O)(C1CC1)N1CC[C@]2(C[C@@H](Oc3ncccc3F)CO2)C1`, the cytotoxicity at 70.5 h turned out to be 6.64%.

On to `CN(C)S(=O)(=O)N1CC[C@]2(C[C@@H](Oc3cccnc3)CO2)C1`, for which the cytotoxicity at 70.5 h is -5.96%.

For the compound `Cc1ccoc1C(=O)N1C[C@H](OCc2cccnc2)[C@H]2OCCC[C@H]21`, the cytotoxicity at 70.5 h was -15.2%.

As for `O=C(O)c1c(-c2cccnc2)ncc2c1CCN(CC1CCOC1)C2` (stereo not drawn), the cytotoxicity at 70.5 h was 16.6%.

As to `O=C(c1ccccn1)N1CCC2(CC1)COC(COCC1CCCC1)C2` (stereo not drawn), the cytotoxicity at 70.5 h was -13.8%.

`O=C(c1ncccn1)N1CCC2(CC1)COC(COc1ccccn1)C2` (stereo not drawn): the cytotoxicity at 70.5 h is 10.9%.

Take `c1coc(CN2CCc3nnc(COc4cncnc4)n3CC2)c1`: the cytotoxicity at 70.5 h is -13.1%.

Consider `CCOCC1CN(Cc2ccncc2)Cc2nn(C)cc21` (stereo not drawn), for which the cytotoxicity at 70.5 h is -7.15%.

Consider `O=C1CO[C@@H]2CN(Cc3ccsc3)C[C@H]2N1Cc1ccncc1`, for which the cytotoxicity at 70.5 h is 13.6%.

For the compound `O=C1NC2(CCN(Cc3cccs3)CC2)CC1c1ccncc1` (stereo not drawn), the cytotoxicity at 70.5 h was 10.2%.

Consider `COc1ccc(CN2CCOCC3(CCN(C4CCOCC4)C3)C2)cc1` (stereo not drawn), for which the cytotoxicity at 70.5 h was -5.87%.

With `Fc1cccc(CN2CCOCC3(CCN(C4CCOCC4)C3)C2)c1` (stereo not drawn), the cytotoxicity at 70.5 h was -7.34%.

Take `Cc1cccc(CN2CCOCC3(CCN(C4CCOCC4)C3)C2)c1` (stereo not drawn): the cytotoxicity at 70.5 h amounted to 9.31%.

As for `c1coc(CN2C[C@@H]3CCCO[C@@H]3[C@H](N3CCCC3)C2)c1`, the cytotoxicity at 70.5 h was -8.85%.

`O=C1NC2(CCN(Cc3ccc(F)cc3)CC2)CC1c1ccncc1` (stereo not drawn): the cytotoxicity at 70.5 h was -8.27%.

As for `CN(Cc1ccco1)[C@@H]1CN(Cc2ccsc2)C[C@@H]2CCCO[C@@H]21`, the cytotoxicity at 70.5 h was found to be 2.78%.

In the case of `CC(=O)N1C[C@@H]2CN(Cc3cccnc3)CCO[C@@H]2C1`, the cytotoxicity at 70.5 h is -11.3%.

Take `O=C1NC2(CCN(Cc3cccnc3)CC2)CC1c1cccnc1` (stereo not drawn): the cytotoxicity at 70.5 h is -8.55%.

As for `CN(Cc1ccco1)[C@@H]1CN(Cc2cccnc2)C[C@@H]2CCCO[C@@H]21`, the cytotoxicity at 70.5 h is -5%.

`c1cncc(CN2CCC3(COCCN(C4CCOCC4)C3)C2)c1` (stereo not drawn): the cytotoxicity at 70.5 h was -6.19%.

Take `Cc1cccc(CN2CCOCC3(CCN(C4CCOCC4)C3)C2)n1` (stereo not drawn): the cytotoxicity at 70.5 h turned out to be 7.65%.
